Patent publication US4828979A, “Nucleotide analogs for nucleic acid labeling and detection” (Life Technologies, Inc., priority 1984, dated 1989)
Like-named read-outs stand apart in the source and are kept apart here.

How the values were obtained:
DNA polymerase I [1] = molecular target: T1, DNA polymerase I (Escherichia coli, UniProt P00582); test: Incorporation of dATP/dCTP and analogs into plasmid DNA by nick translation (3H-dGTP tracer); assay type: biochemical, E. coli; conditions: 1.5 h, tracer 3H-dGTP incorporation relative to reaction mixture containing dNTP's and no derivatives, duplicate figures = two determinations
T1 construct: purchased BRL (Nick Translation System)
T1 sequence (P00582 whole entry): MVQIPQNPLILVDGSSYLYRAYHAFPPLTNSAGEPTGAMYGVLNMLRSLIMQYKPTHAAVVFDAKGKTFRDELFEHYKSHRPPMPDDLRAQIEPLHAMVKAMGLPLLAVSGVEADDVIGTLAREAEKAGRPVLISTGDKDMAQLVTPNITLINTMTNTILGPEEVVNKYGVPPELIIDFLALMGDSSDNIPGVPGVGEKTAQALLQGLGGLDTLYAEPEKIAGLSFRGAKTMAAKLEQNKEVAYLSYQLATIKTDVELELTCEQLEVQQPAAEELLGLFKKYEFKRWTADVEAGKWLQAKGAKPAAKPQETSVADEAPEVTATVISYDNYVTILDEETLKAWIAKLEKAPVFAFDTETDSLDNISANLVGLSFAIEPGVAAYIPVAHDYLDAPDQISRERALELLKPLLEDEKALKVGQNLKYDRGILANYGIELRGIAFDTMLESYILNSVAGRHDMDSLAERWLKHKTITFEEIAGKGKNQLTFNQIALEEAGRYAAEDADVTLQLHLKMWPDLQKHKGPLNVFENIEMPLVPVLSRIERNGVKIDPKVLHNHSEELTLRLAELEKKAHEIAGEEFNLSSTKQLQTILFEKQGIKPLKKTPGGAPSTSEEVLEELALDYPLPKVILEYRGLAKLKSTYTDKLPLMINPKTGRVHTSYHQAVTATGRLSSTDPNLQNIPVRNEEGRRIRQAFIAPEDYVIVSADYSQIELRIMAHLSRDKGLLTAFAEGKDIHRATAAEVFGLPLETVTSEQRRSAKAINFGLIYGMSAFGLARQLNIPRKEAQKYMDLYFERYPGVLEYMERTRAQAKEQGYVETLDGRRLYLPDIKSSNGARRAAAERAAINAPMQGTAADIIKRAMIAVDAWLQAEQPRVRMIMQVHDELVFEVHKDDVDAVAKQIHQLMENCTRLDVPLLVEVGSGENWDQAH
Description: Incorporation into Plasmid DNA of Biotinylated dATP Derivatives
The time course and levels of incorporation were studied as a function of linker size.
(§1) Using the BRL Nick Translation System, dATP and various derivatives were incorporated into plasmid DNA.
(§2) At each time point of interest, 2 μl from the reaction mixture was withdrawn, spotted on glass fiber filters (GF/C), washed in 10% trichloroacetic acid (TCA) once and 5% TCA twice, and dried after washing in alcohol. The filters were counted in a liquid scintillation counter.
The relative levels of incorporation of the modified nucleotides at the 90 minute time point are seen in Table 1 below, in which the data are reported as percent incorporation of the tracer radio-nucleotide (^3 H-dGTP) relative to incorporation resulting from a reaction mixture containing dNTP's and no derivatives. Duplicate figures indicate two determinations. Results for dCTP and analogs appear also.

[2] = test system: streptavidin-biotin alkaline phosphatase system; test: Sensitivity of detection of probes biotinylated with various linker lengths, spotted on nitrocellulose
Description: (§3) The reaction volume was 1 ml. At 10 minutes, 30 minutes and 90 minutes, 200 μl of the reaction mixture was removed and the reaction quenched with 30 mM EDTA. The DNA from each sample was purified on a Sephade® G-50 column. […] In Table 2, "+" or "-" indicates the presence or absence, respectively of visible spots; it can be seen that a high degree of sensitivity exists even with a relatively low level of biotin incorporation.
Probes biotinylated with various linker lengths were then compared for sensitivity of detection. Plasmid DNA was nick translated according to the described protocol with Biotin-n-dATP, for n=7, 14, 3 or 10. The biotinylated DNA's were then purified from unincorporated nucleotides by gel filtration on Sephadex® G-50 in 1×SSC (0.15 M NaCl, 0.015 M sodium citrate) containing 0.1% SDS. The biotinylated DNA was diluted into 6×SSC containing 0.2 μg/μl sheared herring sperm DNA and spotted onto nitrocellulose paper in the range of 50 pg/5 μl to 1 pg/5 μl. After 30 minutes' incubation in the NBT/BCIP dye mixture of the BRL DNA Detection System, 2 pg spots of Bio-7, 14 or 10-dATP labeled probe and a 5 pg spot of Bio-3-dATP labeled probe were visible. After 1.5 hours, the 1 pg spot of each biotin-dATP-labeled probe was visible.

human β-globin gene = test: Detection of single-copy gene sequence in Southern blot of Eco RI digested human DNA; conditions: NBT/BCIP dye system; probe 100 ng/ml, hybridization 16-24 hours
Description: A plasmid containing the 1.1 Kb Mst II fragment of the human β-globin gene in the Eco RI site of pBR322 (obtained from Dr. Y. W. Kan, UCSF) was nick translated with either Biotin-n-dATP in the presence of dTTP, dCTP, and dGTP, or Biotin-n-dCTP in the presence of dATP, dTTP, and dGTP. All nucleotides were at 20 μM and the reaction was allowed to proceed for 90 minutes. Conditions for nick translation of the DNA probe and purification of the biotin-labeled material are given in the manual of the BRL DNA Detection System.
The biotinylated probe was hybridizedto a Southern blot of Eco RI digested human DNA or to an Eco RI digest of the plasmid DNA. Probe concentration was 100 ng/ml and hybridization was allowed to proceed for 16-24 hours under conditions described by Leary et al. (Leary, J. J., Brigati, D. J. and Ward, D. C. (1983) Proc. Natl. Acad. Sci. USA 80 4045-4049). The filter was developed with the BRL Detection System as described in the system's instruction manual. The single copy β-globin gene Fragment at 5.2 Kb was observed within 3 hours of staining with the NBT/BCIP dye system for DNA probes labeled with Biotin-n-dATP where n=3, 7, 10 or 14 and Biotin-n-dCTP where n=7 or 10.

DNA polymerase I [3] = molecular target: T1, DNA polymerase I; test: Incorporation of various levels of Bio-7-dATP into plasmid DNA by nick translation; assay type: biochemical, E. coli
Description: as §1
To examine the detection sensitivity of probes made from the biotinylated nucleotides of the present invention, incorporation of various levels of Bio-7-dATP into plasmid DNA was carried out by nick translation as previously disclosed.
as §3

DNA polymerase I [4] = molecular target: T1, DNA polymerase I; test: Incorporation using radiolabelled biotin-nucleotide (32P-dCTP and 3H-biotin); assay type: biochemical, E. coli; conditions: 20 μM [3H-biotin]-7-dATP; FIG. 6
Description: as §1, §2
Using the same protocol, incorporation was then performed using a radiolabelled biotin-nucleotide. Thus, the level of biotin incorporation was directly determined. 200 μl of the reaction mixture contained 10 μCi of α-^32 PdCTP and either 20 μM dATP or 20 μM [^3 H-biotin]-7-dATP. […] The lower curves show the time courses of incorporation of ^32 P-dCMP and the tritium labelled and biotinylated derivative of dAMP.

[5] = 90 min, 15° C., read-out: % Incorporation (90 min.)
[6] = after 30 minutes' incubation in NBT/BCIP dye mixture

Row | Molecule | activity at 20 µM (DNA polymerase I [1]; [5]) [%] | spot of labeled probe visible (sensitivity) [2, 6] [pg] | time of staining within which single copy β-globin gene fragment at 5.2 Kb was observed (human β-globin gene) [h] | other results
1 | NCCCCCCNc1ncnc2c1ncn2[C@H]1C[C@H](O)[C@@H](COP(=O)(O)OP(=O)(O)OP(=O)(O)O)O1 [N^6 --aminohexyldATP, N^6-(6-aminohexyl)dATP] |  |  |  | activity at 20 µM (DNA polymerase I [1]; read-out: % Incorporation (90 min.), 90 min, 15° C.): 67%
2 | O=C(CCCCCNC(=O)CCCC[C@@H]1SC[C@@H]2NC(=O)N[C@@H]21)NCCCCCCNC(=O)CNc1ncnc2c1ncn2[C@H]1C[C@H](O)[C@@H](COP(=O)(O)OP(=O)(O)OP(=O)(O)O)O1 [Biotin-17-dATP] | 6.7 |  |  | 
3 | O=C(CCCCCNC(=O)CCCC[C@@H]1SC[C@@H]2NC(=O)N[C@@H]21)NCCCCCCNc1ncnc2c1ncn2[C@H]1C[C@H](O)[C@@H](COP(=O)(O)OP(=O)(O)OP(=O)(O)O)O1 [Biotin-14-dATP] | 33 | 2 | ≤ 3 | 
4 | O=C(CCCC[C@@H]1SC[C@@H]2NC(=O)N[C@@H]21)NCCNc1ccn([C@H]2C[C@H](O)[C@@H](COP(=O)(O)OP(=O)(O)OP(=O)(O)O)O2)c(=O)n1 [Biotin-3-dCTP] | 12 |  |  | 
5 | N^6 -(6-hexylamidobiotin-2'-deoxyadenosine 5'-monophosphate [Bio-7-dAMP] |  |  |  | Bio-7-dAMP per Kb (DNA polymerase I [3]; 10 min nick translation): 7 per Kb; Bio-7-dAMP per Kb (DNA polymerase I [3]; 30 min nick translation): 35 per Kb; Bio-7-dAMP per Kb (DNA polymerase I [3]; 90 min nick translation): 98 per Kb
6 | O=C(CCCC[C@@H]1SC[C@@H]2NC(=O)N[C@@H]21)NCCCCCCNc1ncnc2c1ncn2[C@H]1C[C@H](O)[C@@H](COP(=O)(O)OP(=O)(O)OP(=O)(O)O)O1 [Biotin-7-dATP, N^6-(6-hexylamidobiotin)-2'-deoxyadenosine 5'-triphosphate] | 53 | 2 | ≤ 3 | 
7 | O=C(CCCC[C@@H]1SC[C@@H]2NC(=O)N[C@@H]21)NCCCCCCNc1ncnc2c1ncn2[C@H]1C[C@H](O)[C@@H](COP(=O)(O)OP(=O)(O)OP(=O)(O)O)O1 [[^3 H-biotin]-7-dATP] |  |  |  | correspondence of time courses of incorporation of 32P-dCMP and the tritium labelled and biotinylated derivative of dAMP (DNA polymerase I [4]): close correspondence
8 | O=C(CCCC[C@@H]1SC[C@@H]2NC(=O)N[C@@H]21)NCCCCCCNC(=O)CNc1ncnc2c1ncn2[C@H]1C[C@H](O)[C@@H](COP(=O)(O)OP(=O)(O)OP(=O)(O)O)O1 [Biotin-10'-dATP] | 6.9 |  |  | 
9 | Nc1ccn([C@H]2C[C@H](O)[C@@H](COP(=O)(O)OP(=O)(O)OP(=O)(O)O)O2)c(=O)n1 [dCTP, reference compound] | 100 |  |  | 
10 | Nc1ncnc2c1ncn2[C@H]1C[C@H](O)[C@@H](COP(=O)(O)OP(=O)(O)OP(=O)(O)O)O1 [dATP, reference compound] | 100 |  |  | 
11 | O=C(CCCC[C@@H]1SC[C@@H]2NC(=O)N[C@@H]21)NCCCCCCNc1ccn([C@H]2C[C@H](O)[C@@H](COP(=O)(O)OP(=O)(O)OP(=O)(O)O)O2)c(=O)n1 [Biotin-7-dCTP] | 44 |  | ≤ 3 | 
12 | O=C(CCCC[C@@H]1SC[C@@H]2NC(=O)N[C@@H]21)NCCNc1ncnc2c1ncn2[C@H]1C[C@H](O)[C@@H](COP(=O)(O)OP(=O)(O)OP(=O)(O)O)O1 [Biotin-3-dATP] | 29 | 5 | ≤ 3 | 
13 | O=C(CCCC[C@@H]1SC[C@@H]2NC(=O)N[C@@H]21)NCCCCCC(=O)NCCNc1ccn([C@H]2C[C@H](O)[C@@H](COP(=O)(O)OP(=O)(O)OP(=O)(O)O)O2)c(=O)n1 [Biotin-10-dCTP] | 22 | 2 | ≤ 3 | spot of labeled probe visible (sensitivity) ([2]; after 1.5 hours in NBT/BCIP dye mixture): 1 pg
14 | O=C(CCCCCNC(=O)CCCC[C@@H]1SC[C@@H]2NC(=O)N[C@@H]21)NCCCCCCNc1ccn([C@H]2C[C@H](O)[C@@H](COP(=O)(O)OP(=O)(O)OP(=O)(O)O)O2)c(=O)n1 [Biotin-14-dCTP] | 42 |  |  | 
15 | O=C(CCCC[C@@H]1SC[C@@H]2NC(=O)N[C@@H]21)NCCCCCC(=O)NCCNc1ncnc2c1ncn2[C@H]1C[C@H](O)[C@@H](COP(=O)(O)OP(=O)(O)OP(=O)(O)O)O1 [Biotin-10-dATP] | 15 | 2 | ≤ 3 | 
16 | NCCCCCCNc1ccn([C@H]2C[C@H](O)[C@@H](COP(=O)(O)OP(=O)(O)OP(=O)(O)O)O2)c(=O)n1 [N^4 --(6-aminohexyl)dCTP, N^4-(6-aminohexyl)dCTP] | 74 |  |  | 
